Like-named read-outs stand apart in the source and are kept apart here. Square brackets hold non-standard residues; d marks the D form. Peptide text beside a SMILES is read from it.
How the values were obtained:
[1] = system: Proteus mirabilis clinical strains; type: cell-based; design: Minimum inhibitory concentration: unit: μg/ml; conditions: microdilution, Muller Hinton broth-cation adjusted, 0.02% BSA, 0.2% acetic acid
Outline: (§1)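 MIC = lowest concentration without visual growth after 20–24 h at 37° C. Microbroth dilution, 5.0×10^5 cfu/ml, 0.125–128 μg/ml range; MH broth for bacteria, potato dextrose broth for yeasts.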

[2] = system: Serratia marcescens clinical strains; type: cell-based; design: Minimum inhibitory concentration: unit: μg/ml; conditions: microdilution, Muller Hinton broth-cation adjusted, 0.02% BSA, 0.2% acetic acid
Outline: as §1

[3] = system: Streptococcus pneumoniae clinical strains; type: cell-based; design: Minimum inhibitory concentration: unit: μg/ml; conditions: microdilution, Muller Hinton broth-cation adjusted, 0.02% BSA, 0.2% acetic acid
Outline: as §1

[4] = system: Enterobacter cloacae clinical strains; type: cell-based; design: Minimum inhibitory concentration: unit: μg/ml; conditions: microdilution, Muller Hinton broth-cation adjusted, 0.02% BSA, 0.2% acetic acid
Outline: as §1

[5] = system: Staphylococcus aureus clinical strains; type: cell-based; design: Minimum inhibitory concentration: unit: μg/ml; conditions: microdilution, Muller Hinton broth-cation adjusted, 0.02% BSA, 0.2% acetic acid
Outline: as §1

[6] = system: Klebsiella pneumoniae clinical strains; type: cell-based; conditions: microdilution, Muller Hinton broth-cation adjusted, 0.02% BSA, 0.2% acetic acid
Outline: as §1

[7] = system: Pseudomonas aeruginosa clinical strains; type: cell-based; conditions: microdilution, Muller Hinton broth-cation adjusted, 0.02% BSA, 0.2% acetic acid
Outline: as §1

[8] = system: Escherichia coli clinical strains; type: cell-based; conditions: microdilution, Muller Hinton broth-cation adjusted, 0.02% BSA, 0.2% acetic acid
Outline: as §1

[9] = system: C. parapsilosis clinical strains; experiment: MIC, clinical yeast strains; type: cell-based, Candida parapsilosis; design: unit: µg/ml
Outline: as §1

[10] = system: C. glabrata clinical strains; experiment: MIC, clinical yeast strains; type: cell-based, Candida glabrata; design: unit: µg/ml
Outline: as §1

[11] = system: C. quillermondiae clinical strains; experiment: MIC, clinical yeast strains; type: cell-based, Candida quillermondiae; design: unit: μg/ml; conditions: C. quillermondiae clinical yeast strain 1
Outline: as §1

[12] = system: Candida albicans clinical strains; experiment: MIC, clinical yeast strains; type: cell-based; design: unit: μg/ml
Outline: as §1

CC(C)C[C@@H](NC(=O)[C@@H](Cc1c[nH]c2ccccc12)NC(=O)[C@@H](Cc1ccccc1)NC(=O)[C@@H](Cc1c[nH]c2ccccc12)NC(=O)[C@@H](CCCCN)NC(=O)[C@@H](CCCNC(=N)N)NC(=O)[C@H](N)Cc1c[nH]c2ccccc12)C(=O)N[C@H](Cc1ccccc1)C(=O)N[C@H](CCCCN)C(=O)N[C@H](CCCCN)C(=O)N[C@H](CCCNC(=N)N)C(=O)O [Chain309D] (H-[dW][dR][dK][dW][dF][dW][dL][dF][dK][dK][dR]-OH)
Minimum inhibitory concentration ([1]; Proteus mirabilis clinical strain 1): >128
Minimum inhibitory concentration ([1]; Proteus mirabilis clinical strain 2): >128
Minimum inhibitory concentration ([1]; Proteus mirabilis clinical strain 3): >128
Minimum inhibitory concentration ([1]; Proteus mirabilis clinical strain 4): >128
Minimum inhibitory concentration ([1]; Proteus mirabilis clinical strain 5): >128
Minimum inhibitory concentration ([2]; Serratia marcescens clinical strain 1): >128
Minimum inhibitory concentration ([2]; Serratia marcescens clinical strain 2): >128
Minimum inhibitory concentration ([2]; Serratia marcescens clinical strain 3): >128
Minimum inhibitory concentration ([2]; Serratia marcescens clinical strain 4): >128
Minimum inhibitory concentration ([2]; Serratia marcescens clinical strain 5): >128
Minimum inhibitory concentration ([3]; Streptococcus pneumoniae clinical strain 1): 64
Minimum inhibitory concentration ([3]; Streptococcus pneumoniae clinical strain 2): 64
Minimum inhibitory concentration ([3]; Streptococcus pneumoniae clinical strain 3): 64
Minimum inhibitory concentration ([3]; Streptococcus pneumoniae clinical strain 4): 64
Minimum inhibitory concentration ([3]; Streptococcus pneumoniae clinical strain 5): 64
Minimum inhibitory concentration ([4]; Enterobacter cloacae clinical strain 1): >128
Minimum inhibitory concentration ([4]; Enterobacter cloacae clinical strain 2): 128
Minimum inhibitory concentration ([4]; Enterobacter cloacae clinical strain 3): 64
Minimum inhibitory concentration ([4]; Enterobacter cloacae clinical strain 4): 64
Minimum inhibitory concentration ([4]; Enterobacter cloacae clinical strain 5): 32
Minimum inhibitory concentration ([5]; Staphylococcus aureus clinical strain 1): 8
Minimum inhibitory concentration ([5]; Staphylococcus aureus clinical strain 2): 16
Minimum inhibitory concentration ([5]; Staphylococcus aureus clinical strain 3): 8
Minimum inhibitory concentration ([5]; Staphylococcus aureus clinical strain 4): 8
Minimum inhibitory concentration ([5]; Staphylococcus aureus clinical strain 5): 8
Minimum inhibitory concentration ([6]; Klebsiella pneumoniae clinical strain 1): 128
Minimum inhibitory concentration ([6]; Klebsiella pneumoniae clinical strain 2): 32
Minimum inhibitory concentration ([6]; Klebsiella pneumoniae clinical strain 3): >128
Minimum inhibitory concentration ([6]; Klebsiella pneumoniae clinical strain 4): 32
Minimum inhibitory concentration ([6]; Klebsiella pneumoniae clinical strain 5): 128
Minimum inhibitory concentration ([7]; Pseudomonas aeruginosa clinical strain 1): 16
Minimum inhibitory concentration ([7]; Pseudomonas aeruginosa clinical strain 2): 32
Minimum inhibitory concentration ([7]; Pseudomonas aeruginosa clinical strain 3): 16
Minimum inhibitory concentration ([7]; Pseudomonas aeruginosa clinical strain 4): 32
Minimum inhibitory concentration ([7]; Pseudomonas aeruginosa clinical strain 5): 8
Minimum inhibitory concentration ([8]; Escherichia coli clinical strain 1): 0.5
Minimum inhibitory concentration ([8]; Escherichia coli clinical strain 2): 32
Minimum inhibitory concentration ([8]; Escherichia coli clinical strain 3): 16
Minimum inhibitory concentration ([8]; Escherichia coli clinical strain 4): 32
Minimum inhibitory concentration ([8]; Escherichia coli clinical strain 5): 16
Minimum inhibitory concentration ([9]; C. parapsilosis clinical yeast strain 1): 64
Minimum inhibitory concentration ([9]; C. parapsilosis clinical yeast strain 2): 64
Minimum inhibitory concentration ([9]; C. parapsilosis clinical yeast strain 3): 32
Minimum inhibitory concentration ([9]; C. parapsilosis clinical yeast strain 4): 16
Minimum inhibitory concentration ([10]; C. glabrata clinical yeast strain 1): 32
Minimum inhibitory concentration ([10]; C. glabrata clinical yeast strain 2): 64
Minimum inhibitory concentration ([10]; C. glabrata clinical yeast strain 3): 4
Minimum inhibitory concentration ([10]; C. glabrata clinical yeast strain 4): 128
Minimum inhibitory concentration [11]: 8
Minimum inhibitory concentration ([12]; Candida albicans clinical yeast strain 1): 32
Minimum inhibitory concentration ([12]; Candida albicans clinical yeast strain 2): 32
Minimum inhibitory concentration ([12]; Candida albicans clinical yeast strain 3): 16
Minimum inhibitory concentration ([12]; Candida albicans clinical yeast strain 4): 16
Minimum inhibitory concentration ([12]; Candida albicans clinical yeast strain 5): 32

Source: patent US10457709B2, “Antimicrobial peptides, their variants and uses” (priority 2015, dated 2019)
